The source of these data is patent US3954893A, “New halogenated cyclobutanes” (W. R. Grace & Co., priority 1975, dated 1976).

Some results are limits rather than exact numbers.

The conditions of series [1]: review of the art; cited from earlier work.
Series [2] deals with air-breathing mammals. Kind of series: Inhalation anesthetic properties of the compounds. Particulars: for Convulsions and death: administered in concentrations within the useful range; for Inhalation anesthetic properties: in vivo. Format: in vivo. As for the experimental part:
(§1) In this test, mice were exposed to the compounds for a period of 10 minutes in a rotating drum. Observations were then made of the pinch reflex, the corneal reflex and the return of the righting reflex. At least four graded doses were employed to determine the minimum concentration required to anesthetize 50% of the mice used (AC50) and the minimum concentration required to kill 50% of the mice (LC50). The anesthetic index (AI) was then calculated from these minimum concentrations. The data obtained with the compounds of Examples I to XIII are presented in Table 2 along with, for comparison purposes, results obtained from similar testing of 1,2-dihydrohexafluorocyclobutane, the compound of the prior art, a closely related analog, 1,1,2,2-tetrafluorocyclobutane, and another chlorofluoro anesthetic, 1,1,2-trichloro-2,3,3-trifluorocyclobutane.

Series [3] in a line: Standard test for evaluation of inhalation anesthetics (rotating drum, 10 minutes exposure; AC50, LC50, AI). Type of series: in vivo, mice. Particulars: mouse, in vivo, inhaled or intranasal, calculated from AC50 and LC50, mice; read-out: AI (anesthetic index). As for the experimental part:
as §1

Series [4] concerns mice. Described as above. Format: in vivo. To be noted: for AC50 (minimum concentration required to anesthetize 50% of the mice) / LC50 (minimum concentration required to kill 50% of the mice): inhalation, 10 minutes exposure in rotating drum, where two percentages are given the actual vapor concentration lies between them. As for the experimental part:
as §1

In series [5] the test system is mice. Kind of series: Observation after exposure: survival, delayed death, convulsions. Type of series: in vivo. The procedure: as §1
In contrast to these findings, all test mice used in Example I to X were still living one week after exposure.
This compound, which is one of the numerous halogenated cyclobutanes that have been found deleterious, is of particular interest in that its close structural relationship to the 1,2-dihydrohexafluorocyclobutane isomers of the art and to the useful trifluoro (Ex. VII) homolog disclosed above provides a good illustration of the unpredictability in physiological behavior in the field of anesthesia.

The conditions of series [6]: cis- and trans- isomers, values reported by Burns et al; cited from earlier work.

For `FC1(F)C(F)(F)C(F)(Cl)C1(F)Cl` (centres unmarked) [1,2-dichlorohexafluoro-], the “Anesthetic properties / toxicity in the prior art” value (shortened to “Anesthetic properties / toxicity”) in series [1] is “toxic”.
As for `FC1C(F)C(F)(F)C1(F)F` (centres unmarked) [1,2-dihydrohexafluoro-, 1,2-dihydrohexafluorocyclobutane], the “Anesthetic properties / toxicity” value in series [1] is “said to possess anesthetic properties”.
On to `FC1(F)CC(Cl)C1(F)Cl` (centres unmarked) [1,4-dichloro-1,2,2-trifluorocyclobutane], for which, in series [2], the Convulsions and death result was “not cause convulsions and death”; the Inhalation anesthetic properties result is listed as “found to possess inhalation anesthetic properties”.
In the case of `FC1(F)CC(Cl)C1(F)Br` (centres unmarked) [Example X, 1-bromo-2-chloro-1,4,4-trifluorocyclobutane], in series [3], the selectivity ratio at 10 min is not below 2.5. Further, in series [4], the “AC50 (minimum concentration required to anesthetize 50% of the mice)” value is listed as less than 0.2 % volume and the “LC50 (minimum concentration required to kill 50% of the mice)” value is 0.5 % volume. In addition, in series [2], the Convulsions and death result is “not cause convulsions and death”; the Inhalation anesthetic properties entry was “found to possess inhalation anesthetic properties”.
`FC1(F)CCC1(F)F` [Example XII, 1,1,2,2-tetrafluorocyclobutane, reference compound]: the selectivity ratio at 10 min in series [3] is 3. In series [4], the “AC50 (minimum concentration required to anesthetize 50% of the mice)” value is 4 % volume and the “LC50 (minimum concentration required to kill 50% of the mice)” value turned out to be 12 % volume. Further, in series [5] (on further observation), the Convulsions entry was “proved to be a convulsant on further observation”.
Take `FC1(F)CC(Cl)C1(F)Cl` (centres unmarked) [I, b.p. 104°C]: the “AI (anesthetic index)” value in series [4] (calculated from AC50 and LC50, mice, 10 min) was 4. Besides, in series [4], the “AC50 (minimum concentration required to anesthetize 50% of the mice)” value is recorded as 0.2 % volume and the “LC50 (minimum concentration required to kill 50% of the mice)” value is 0.8 % volume.
Regarding `FC1(F)CC(Cl)C1(F)Cl` (centres unmarked) [I, b.p. 107°C], in series [3], the selectivity ratio at 10 min was 6. For the same compound, in series [4], the “AC50 (minimum concentration required to anesthetize 50% of the mice)” value is given as 0.2 % volume and the “LC50 (minimum concentration required to kill 50% of the mice)” value is 1.2 % volume.
With `FC1CC(F)(F)C1(F)Cl` (centres unmarked) [II, 1-chloro-1,2,2,4-tetrafluorocyclobutane], the selectivity ratio at 10 min in series [3] is not below 6. Further, in series [4], the “AC50 (minimum concentration required to anesthetize 50% of the mice)” value turned out to be 0.5 % volume and the “LC50 (minimum concentration required to kill 50% of the mice)” value is on record as 3-3.5 % volume. In addition, in series [2], the Convulsions and death entry was “not cause convulsions and death”; the Inhalation anesthetic properties entry is “found to possess inhalation anesthetic properties”.
As for `FC1(F)CC(F)(Cl)C1(F)Cl` (centres unmarked) [III, 1,4-dichloro-1,2,2,4-tetrafluorocyclobutane], in series [3], the selectivity ratio at 10 min is not below 1. For the same compound, in series [4], the “AC50 (minimum concentration required to anesthetize 50% of the mice)” value is recorded as 0.43-2 % volume and the “LC50 (minimum concentration required to kill 50% of the mice)” value is 2-3 % volume. In series [2], the Convulsions and death result was “not cause convulsions and death”; the Inhalation anesthetic properties result was “found to possess inhalation anesthetic properties”.
On to `FC1C(Cl)CC1(F)F` (centres unmarked) [IV, 1-chloro-2,3,3-trifluorocyclobutane], for which the selectivity ratio at 10 min in series [3] was not below 4. Moreover, in series [4], the “AC50 (minimum concentration required to anesthetize 50% of the mice)” value is 0.75-1 % volume and the “LC50 (minimum concentration required to kill 50% of the mice)” value is listed as not below 4 % volume. In series [2], the Convulsions and death entry was “not cause convulsions and death”; the Inhalation anesthetic properties result is “found to possess inhalation anesthetic properties”.
For `CC1CC(F)(F)C1(F)Br` (centres unmarked) [IX, 1-bromo-2-methyl-1,4,4-trifluorocyclobutane], the selectivity ratio at 10 min in series [3] was not below 1.5. For the same compound, in series [4], the “AC50 (minimum concentration required to anesthetize 50% of the mice)” value is reported as 0.5-1 % volume and the “LC50 (minimum concentration required to kill 50% of the mice)” value is 1.5-1.75 % volume. Moreover, in series [2], the Convulsions and death result was “not cause convulsions and death”; the Inhalation anesthetic properties result is reported as “found to possess inhalation anesthetic properties”.
`FC1(F)CC(F)(Cl)C1(F)F` (centres unmarked) [V, 1-chloro-1,2,2,3,3-pentafluorocyclobutane]: the selectivity ratio at 10 min in series [3] was 5. In addition, in series [4], the “AC50 (minimum concentration required to anesthetize 50% of the mice)” value came to 2 % volume and the “LC50 (minimum concentration required to kill 50% of the mice)” value was 10 % volume. In addition, in series [2], the Convulsions and death result is “not cause convulsions and death”; the Inhalation anesthetic properties result was “found to possess inhalation anesthetic properties”.
Regarding `FC1CC(F)(F)C1Cl` (centres unmarked) [VI, 1-chloro-2,4,4-trifluorocyclobutane], in series [3], the selectivity ratio at 10 min is not below 2. Also, in series [4], the “AC50 (minimum concentration required to anesthetize 50% of the mice)” value is less than 1 % volume and the “LC50 (minimum concentration required to kill 50% of the mice)” value is listed as 2 % volume. For the same compound, in series [2], the Convulsions and death entry was “not cause convulsions and death”; the Inhalation anesthetic properties result was “found to possess inhalation anesthetic properties”.
For `FC1CCC1(F)F` (centres unmarked) [VII, 1,2,2-trifluorocyclobutane], the selectivity ratio at 10 min in series [3] was not below 2. For the same compound, in series [4], the “AC50 (minimum concentration required to anesthetize 50% of the mice)” value is less than 4 % volume and the “LC50 (minimum concentration required to kill 50% of the mice)” value was determined as 8 % volume. Also, in series [2], the Convulsions and death result is “not cause convulsions and death”; the Inhalation anesthetic properties entry is reported as “found to possess inhalation anesthetic properties”.
Regarding `FC1(F)CCC1(F)Br` (centres unmarked) [VIII, 1-bromo-1,2,2-trifluorocyclobutane], the selectivity ratio at 10 min in series [3] was not below 7. In addition, in series [4], the “AC50 (minimum concentration required to anesthetize 50% of the mice)” value is given as less than 0.5 % volume and the “LC50 (minimum concentration required to kill 50% of the mice)” value was 3.5 % volume. In series [2], the Convulsions and death result is “not cause convulsions and death”; the Inhalation anesthetic properties entry is “found to possess inhalation anesthetic properties”.
Turning to `FC1C(F)C(F)(F)C1(F)F` (centres unmarked) [XI, b.p. 26°], the “AC50 (anesthetic concentration)” value in series [6] is listed as 10.5 % volume.
For the compound `FC1C(F)C(F)(F)C1(F)F` (centres unmarked) [XI, b.p. 63°], the “AC50 (anesthetic concentration)” value in series [6] is recorded as 1.9 % volume.
`FC1(F)CC(Cl)(Cl)C1(F)Cl` (centres unmarked) [XIII, 1,1,2-trichloro-2,3,3-trifluorocyclobutane, reference compound]: in series [3], the selectivity ratio at 10 min was 5. Further, in series [4], the “AC50 (minimum concentration required to anesthetize 50% of the mice)” value stood at 0.2 % volume and the “LC50 (minimum concentration required to kill 50% of the mice)” value was found to be 1 % volume. The Delayed death entry in series [5] (mice, retested in the manner of Examples I to X, XII and XIII, after apparent recovery from anesthesia) is on record as “The same "delayed death" phenomenon has been observed”.
Consider `C1CC1` [cyclopropane], for which the “Anesthetic properties / toxicity” value in series [1] is given as “effective if inflammable anesthetic”.
With `FC(F)(F)C(Cl)Br` (centres unmarked) [halothane, reference compound], in series [3], the selectivity ratio at 10 min was approximately 3.
Regarding `FC1(F)C(F)(F)C(F)(F)C1(F)F` [octafluoro-], the “Anesthetic properties / toxicity” value in series [1] is “inactive”.
